Legend:
[1] = molecular target: recombinant human α2C receptor (Homo sapiens (Human), UniProt P18825); assay: Antagonism against the adrenoreceptor α2C (luminescence, noradrenaline-stimulated CHO cells); assay type: cell-based; conditions: noradrenaline 20 nM; CHO cell line with Gαqi3 and mtOb
Procedure: Antagonism against the adrenoreceptor α1A was tested using a recombinant human α1A receptor CHO cell line which additionally also recombinantly expresses mtAeq (mitochondrial aequorin). Antagonism against the adrenoreceptor α2A was tested using a recombinant human α2A-Gα16 receptor fusion protein CHO cell line (PerkinElmer Life Sciences) which additionally also recombinantly expresses mtAeq. Antagonism against the adrenoreceptor α2B was tested using a recombinant human α2B receptor CHO cell line (PerkinElmer Life Sciences) which additionally also recombinantly expresses mtAeq. Antagonism against the adrenoreceptor α2C was tested using a recombinant human α2C receptor CHO cell line which additionally also recombinantly expresses a chimaric G protein (Gαqi3) and mtOb (mitochondrial obelin).
The cells were cultivated at 37° C. and 5% CO2 in Dulbecco's modified Eagle's Medium/NUT mix F12 with L-glutamine which additionally contains 10% (v/v) inactivated foetal calf serum, 1 mM sodium pyruvate, 0.9 mM sodium bicarbonate, 50 U/ml penicillin, 50 μg/ml streptomycin, 2.5 μg/ml amphotericin B and 1 mg/ml Geneticin. The cells were passaged with enzyme-free Hank's-based cell dissociation buffer. All cell culture reagents used were from Invitrogen (Carlsbad, USA).
Luminescence measurements were carried out on white 384-well microtitre plates. 2000 cells/well were plated in a volume of 25 μl and cultivated for one day at 30° C. and 5% CO2 in cell culture medium with coelenterazine (α2A and α2B: 5 μg/ml; α1a/c and α2C: 2.5 μg/ml). Serial dilutions of the test substances (10 μl) were added to the cells. After 5 minutes, noradrenaline was added to the cells (35 μl; final concentrations: 20 nM (α1a/c and α2C) or 200 nM (α2A and α2B)), and the emitted light was measured for 50 seconds using a CCD (charge-coupled device) camera (Hamamatsu Corporation, Shizuoka, Japan) in a light-tight box. The test substances were tested up to a maximum concentration of 10 μM. The IC50 values were calculated from the appropriate dose-response curves.

[2] = test system: conscious female Wistar rats; assay: Radiotelemetric measurement of blood pressure and heart rate of conscious rats; assay type: in vivo, rat
Description: A commercially available telemetry system from Data Sciences International DSI, USA, was employed for the measurements on conscious rats described below. The system consists of 3 main components: (1) implantable transmitters (Physiotel® telemetry transmitter), (2) receivers (Physiotel® receiver), which are linked via a multiplexer (DSI Data Exchange Matrix) to a (3) data acquisition computer. The telemetry system makes it possible to continuously record blood pressure, heart rate and body motion of conscious animals in their usual habitat.
The studies were conducted on adult female Wistar rats with a body weight of >200 g. After transmitter implantation, the experimental animals were housed singly in type III Makrolon® cages. They had free access to standard feed and water. The day/night rhythm in the test laboratory was set by changing the illumination of the room.
The telemetry transmitters used (PA-C40, DSI) were surgically implanted under aseptic conditions in the experimental animals at least 14 days before the first experimental use.
For the implantation, the fasted animals were anaesthetized with isoflurane (IsoFlo®, Abbott, initiation 5%, maintenance 2%) and shaved and disinfected over a large area of their abdomens. […]
Each of the instrumented rats living in the system was assigned a separate receiving antenna (RPC-1 Receiver, DSI). […] The signals emitted were detected online by a data acquisition system (Dataquest™ A.R.T. for Windows, DSI) and processed accordingly.
In the standard procedure, the following were measured for 10-second periods in each case: (1) systolic blood pressure (SBP), (2) diastolic blood pressure (DBP), (3) mean arterial pressure (MAP) and (4) heart rate (HR) and (5) activity (ACT). These parameters were measured over 24 hours after administration.
The acquisition of measurements was repeated under computer control at 5-minute intervals. The source data obtained as absolute values were corrected in the diagram with the currently measured barometric pressure (Ambient Pressure Reference Monitor, APR-1, DSI). […]

[3] = test system: diabetic ZDF fa/fa animals; assay: Measurement of blood flow and blood pressure in rats (femoral flow), ZDF rat; assay type: in vivo; conditions: for Change in the femoral flow in %: ZDF rat (n = 3), steady state 32 min, mean
Procedure: (§1) Wistar rats (Hsd Cpb:Wu) of a weight of 250-350 g or ZDF rats (ZDF/Crl-Lepr fa/fa) of a weight of 330-520 g were anesthetized using 2.5% isoflurane in an oxygen/laughing gas mixture (40:60). To determine the blood flow in the carotid artery and the femoral artery, the anesthetized rat was brought into a supine position, and the left carotid artery and the right femoral artery are then carefully exposed. Blood flow was measured by placing flow probes (Transonic Flowprobe) at the vessels. By introducing a PE50 artery catheter into the left femoral artery, blood pressure and heart rate were determined (Transducer Ref. 5203660: from Braun CH). The substances were administered as a bole injection or a continuous infusion via a venous catheter in the left femoral vein.
(§2) Following the preparation of the animals, there was a 5 min baseline interval. Infusion of the AR alpha2C receptor antagonist was then started. In the steady state (32 min after the start of the experiment), the femoral flow was determined in relation (% difference) to the initial flow.
(§3) At the same time, no changes in blood pressure and heart rate were measured. Placebo: 10% ethanol/40% PEG400/50% NaCl.

[4] = test system: diabetic (ZDFfa/fa) and healthy rats (Wistar); assay: Assay of perfusion-enhancing substances (microcirculation), laser doppler at the paw; assay type: in vivo, rat
Description: In diabetic (ZDFfa/fa) and healthy rats (Wistar), a laser doppler probe was fastened under anaesthesia conditions (isoflurane anaesthesia) at the sole of the paw for measuring cutaneous microcirculation. The test animals were once treated orally with the test substances. During the experiment, microperfusion and temperature of the lower extremities were documented continuously. Here, a temperature-sensitive laser doppler probe (Periflux, O2C) was fastened with adhesive to the paws of the animals, allowing the measurement of microperfusion and skin temperature. The microcirculation measurement values were measured on both paws 30 min after oral administration of the test substance. […] Also stated is the MED for the significant increase of skin temperature (ttest).
Microcirculation data for adrenoreceptor α2C receptor antagonist of the compound of Example 8 and for the comparative substance ORM12741, an AR α2c receptor antagonist from Orion, are shown in Table 3: […]

[5] = test system: Wistar rat; assay: Measurement of blood flow and blood pressure in rats (femoral flow), Wistar rat; assay type: in vivo
Procedure: as §1, §2, §3

[6] = during infusion, up to 1 μg/kg/min

Chain of recombinant human α2C receptor (P18825 whole entry, the tested form may be a part): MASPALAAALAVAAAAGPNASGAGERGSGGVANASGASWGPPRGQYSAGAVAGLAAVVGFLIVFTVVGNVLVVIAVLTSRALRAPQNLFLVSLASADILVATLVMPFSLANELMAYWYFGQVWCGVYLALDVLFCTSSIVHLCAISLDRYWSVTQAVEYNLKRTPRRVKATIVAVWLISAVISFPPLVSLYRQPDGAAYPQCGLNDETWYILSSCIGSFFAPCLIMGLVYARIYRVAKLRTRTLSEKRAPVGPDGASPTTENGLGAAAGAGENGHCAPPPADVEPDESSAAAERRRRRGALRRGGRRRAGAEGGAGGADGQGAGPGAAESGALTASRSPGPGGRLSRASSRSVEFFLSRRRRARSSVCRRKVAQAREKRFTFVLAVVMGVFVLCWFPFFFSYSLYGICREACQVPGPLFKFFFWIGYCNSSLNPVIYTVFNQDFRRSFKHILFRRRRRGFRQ

`O=C(c1cnc(N2CC3(COC3)C2)nc1)N1CCC(N2CCc3ccccc3C2)CC1` [Example 8, [4-(3,4-Dihydroisoquinolin-2(1H)-yl)piperidin-1-yl][2-(2-oxa-6-azaspiro[3.3]hept-6-yl)pyrimidin-5-yl]methanone] was tested, and the IC50 [1] was 23 nM, the heart rate ([2]; oral 3 and 10 mg/kg) was “slight transient increase in the heart rate” and the “haemodynamic effects (blood pressure, heart rate)” value ([2]; up to an oral dose of 1 mg/kg) was “no haemodynamic effects”. For the same molecule, the “Change in the femoral flow in %” value ([3]; 0.1 μg/kg/min infusion) was 12.3%, the “Change in the femoral flow in %” value ([3]; 0.3 μg/kg/min infusion) was 65.0% and the “Change in the femoral flow in %” value ([3]; 1 μg/kg/min infusion) was 131.3%. For the same molecule, the “femoral flow (in words)” value ([3]; diabetic ZDF fa/fa animals, doses of 0.1, 0.3 and 1 μg/kg) was “dose-dependent increase in femoral flow”, the “factor by which microcirculation is improved at the MED compared to placebo” value ([4]; single oral dose at MED, 30 min after administration) was 1.8 x and the MED microcirculation ([4]; single oral dose, measured 30 min after administration, significant vs placebo) was 0.03 mg/kg. The MED skin temperature ([4]; single oral dose, significant increase of skin temperature (ttest)) was 0.01 mg/kg, the “Change in the femoral flow in %” value ([5]; Wistar rat (n = 7), 1 μg/kg/min infusion, steady state 32 min, mean) was −6.7 (n = 7) % and the “femoral flow (in words)” value ([5]; Wistar rat, up to a dose of 1 μg/kg/min) was “no increase in femoral flow”. For the same molecule, the “blood pressure (in words)” value [5, 6] was “no changes” and the “heart rate (in words)” value [5, 6] was “no changes”.
